Columns and labels:
[1] = tested on: antibodies in sera from SARS patients (sera 1a, 1b, 2, 6, 37, 62, London, SARS-yellow, SARS-green); assay type: binding, human; design: Binding of serum 6 to linear peptides of protein X1 of SARS-CoV Urbani / Binding of serum 37 to linear peptides of protein X1 of SARS-CoV Urbani / Binding of serum 6 to looped/cyclic peptide (PEPSCAN-ELISA) / Binding of serum 37 to looped/cyclic peptide (PEPSCAN-ELISA) / Binding of serum 37 to looped/cyclic peptides of protein X1 of SARS-CoV Urbani / Binding of serum 6 to linear peptides of protein X2 / Binding of serum 37 to linear peptides of protein X2 / Binding of serum 37 to looped/cyclic peptides of protein X2 of SARS-CoV Urbani / Binding of serum 6 to linear peptides of protein M of SARS-CoV Urbani / Binding of serum 37 to linear peptides of protein M of SARS-CoV Urbani / Binding of serum 6 to looped/cyclic peptides of protein M of SARS-CoV Urbani / Binding of serum 37 to looped/cyclic peptides of protein M of SARS-CoV Urbani / Binding of serum 6 to linear peptides of protein X3 of SARS-CoV Urbani / Binding of serum 37 to linear peptides of protein X3 of SARS-CoV Urbani / Binding of serum 37 to looped/cyclic peptides of protein X3 of SARS-CoV Urbani / Binding of serum 6 to linear peptides of protein X4 of SARS-CoV Urbani / Binding of serum 37 to linear peptides of protein X4 of SARS-CoV Urbani / Binding of serum 37 to looped/cyclic peptides of protein X4 of SARS-CoV Urbani / Binding of serum 6 to linear peptides of protein X5 of SARS-CoV Urbani / Binding of serum 37 to linear peptides of protein X5 of SARS-CoV Urbani / Binding of serum 37 to looped/cyclic peptides of protein X5 of SARS-CoV Urbani / Binding of serum 6 to linear peptides of protein N of SARS-CoV Urbani / Binding of serum 37 to linear peptides of protein N of SARS-CoV Urbani / Binding of serum 6 to linear peptide (PEPSCAN-ELISA) / Binding of serum 1a to looped/cyclic peptides of protein N of SARS-CoV Urbani / Binding of serum 1b to looped/cyclic peptides of protein N of SARS-CoV Urbani / Binding of serum 2 to looped/cyclic peptides of protein N of SARS-CoV Urbani / Binding of serum 6 to looped/cyclic peptides of protein N of SARS-CoV Urbani / Binding of serum 37 to looped/cyclic peptides of protein N of SARS-CoV Urbani / Binding of serum 62 to looped/cyclic peptides of protein N of SARS-CoV Urbani / Binding of serum London to looped/cyclic peptides of protein N of SARS-CoV Urbani / Binding of serum SARS-green to looped/cyclic peptides of protein N of SARS-CoV Urbani: unit not given here
[2] = tested on: control sera (pooled serum of ten healthy LUMC hospital workers; commercial negative donor pooled serum from the Dutch bloodbank); assay type: binding, human; design: Binding of Control serum LUMC to linear peptides / Binding of Control serum Blood-bank to linear peptides / Binding of Control serum LUMC to looped peptides / Binding of Control Serum Blood-Bank to Looped peptides / Binding of Control serum LUMC to linear peptides of the protein M of SARS-CoV Urbani / Binding of Control serum Blood-bank to linear peptides of the protein M of SARS-CoV Urbani / Binding of Control serum LUMC to looped peptides of the protein M of SARS-CoV Urbani / Binding of Control Serum Blood-Bank to Looped peptides of the protein M of SARS-CoV Urbani: unit not given here
[3] = tested on: rabbit serum obtained by immunizing a rabbit with the SARS-CoV strain Frankfurt 1; assay type: binding; design: Binding of a rabbit serum to linear peptides / Binding of a rabbit serum to looped peptides / Rabbit serum linear peptides / Rabbit serum looped peptides / Binding of a rabbit serum to linear peptides of protein N of SARS-CoV Urbani (Rabbit serum linear peptides) / Binding of a rabbit serum to looped/cyclic peptides of protein N of SARS-CoV Urbani (Rabbit serum looped peptides): unit not given here

VHGYFTEVYYQLEST
0.5: Binding of serum 1a to looped/cyclic peptides of protein X1 of SARS-CoV Urbani [1] | Binding of serum 1b to linear peptides of protein X1 of SARS-CoV Urbani [1] | Binding of serum 2 to looped/cyclic peptides of protein X1 of SARS-CoV Urbani [1] | Binding of serum 37 to looped/cyclic peptides of protein X1 of SARS-CoV Urbani [1] | Binding of serum SARS-yellow to looped/cyclic peptides of protein X1 of SARS-CoV Urbani [1] | Binding of Control Serum Blood-Bank to Looped peptides [2] | Binding of Control serum LUMC to linear peptides [2]
0.2: Binding of serum London to linear peptides of protein X1 of SARS-CoV Urbani [1] | Binding of serum London to looped/cyclic peptides of protein X1 of SARS-CoV Urbani [1]
0.3: Binding of serum 6 to looped/cyclic peptides of protein X1 of SARS-CoV Urbani [1] | Binding of serum 62 to linear peptides of protein X1 of SARS-CoV Urbani [1] | Binding of serum SARS-green to looped/cyclic peptides of protein X1 of SARS-CoV Urbani [1] | Binding of serum SARS-yellow to linear peptides of protein X1 of SARS-CoV Urbani [1]
0.4: Binding of serum 1b to looped/cyclic peptides of protein X1 of SARS-CoV Urbani [1] | Binding of serum 2 to linear peptides of protein X1 of SARS-CoV Urbani [1] | Binding of serum 6 to linear peptides of protein X1 of SARS-CoV Urbani [1] | Binding of serum 37 to linear peptides of protein X1 of SARS-CoV Urbani [1] | Binding of Control serum Blood-bank to linear peptides [2]
0.7: Binding of serum 1a to linear peptides of protein X1 of SARS-CoV Urbani [1] | Binding of Control serum LUMC to looped peptides [2]
0.1: Binding of serum SARS-green to linear peptides of protein X1 of SARS-CoV Urbani [1] | Binding of a rabbit serum to linear peptides [3]
0.6: Binding of serum 62 to looped/cyclic peptides of protein X1 of SARS-CoV Urbani [1] | Binding of a rabbit serum to looped peptides [3]

VILRIGTQVLKTMSL
0.7: Binding of serum 62 to looped/cyclic peptides of protein X2 of SARS-CoV Urbani [1] | Binding of Control Serum Blood-Bank to Looped peptides [2] | Binding of Control serum LUMC to looped peptides [2]
0.5: Binding of serum 1b to linear peptides of protein X2 [1] | Binding of serum 2 to linear peptides of protein X2 [1] | Binding of serum 6 to linear peptides of protein X2 [1] | Binding of serum 6 to looped/cyclic peptides of protein X2 of SARS-CoV Urbani [1] | Binding of serum 37 to looped/cyclic peptides of protein X2 of SARS-CoV Urbani [1] | Binding of Control serum LUMC to linear peptides [2] | Binding of a rabbit serum to looped peptides [3]
0.3: Binding of serum SARS-green to looped/cyclic peptides of protein X2 of SARS-CoV Urbani [1] | Binding of a rabbit serum to linear peptides [3]
0.2: Binding of serum London to looped/cyclic peptides of protein X2 of SARS-CoV Urbani [1]
0.4: Binding of serum 2 to looped/cyclic peptides of protein X2 of SARS-CoV Urbani [1] | Binding of serum London to linear peptides of protein X2 [1] | Binding of serum SARS-green to linear peptides of protein X2 [1] | Binding of serum SARS-yellow to linear peptides of protein X2 [1] | Binding of serum SARS-yellow to looped/cyclic peptides of protein X2 of SARS-CoV Urbani [1]
0.6: Binding of serum 1a to linear peptides of protein X2 [1] | Binding of serum 1a to looped/cyclic peptides of protein X2 of SARS-CoV Urbani [1] | Binding of serum 1b to looped/cyclic peptides of protein X2 of SARS-CoV Urbani [1] | Binding of serum 37 to linear peptides of protein X2 [1] | Binding of serum 62 to linear peptides of protein X2 [1]
0.8: Binding of Control serum Blood-bank to linear peptides [2]

Reference: US20070128217A1 (priority 2003, published 2007)
